Patent publication US20200069691A1, “HETEROCYCLIC COMPOUNDS AS HIV PROTEASE INHIBITORS” (Merck Sharp & Dohme Corp., priority 2016, published 2020)

Molecular target: T1, wild-type HIV-1 protease (Human immunodeficiency virus type 1 group M subtype B, UniProt P04585)
T1 construct: Escherichia coli expressed wild-type HIV-1 protease protein
Assay: Assay for Inhibition of Microbial Expressed HIV Protease (peptide substrate cleavage, LC-MS/MS readout)
Format: biochemical
Conditions: E. coli expressed wild-type HIV-1 protease, mean of at least two independent experiments, read-out: HIV Pr Enzyme HIV1 PR IC50
In short: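 E. coli-expressed wild-type HIV-1 protease ([…]) was preincubated with inhibitor 30 min at room temperature in pH 5.5 acetate buffer (100 mM NaCl, 0.1% BSA). Then 400 μM octapeptide substrate was added and reacted 1 h at 30 °C; inhibition came from LC-MS/MS product peak areas, mean of ≥2 experiments.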

Compound	IC50 [nM]
N=C1N[C@@](c2ccc(F)cc2)(C2CCOCC2)C(=O)N1C1CCCc2ccc(C(=O)N3Cc4nccnc4C3)cc21 (stereo in doubt) [Compound 130, (5R)-3-[(1R)-7-(5,7-dihydro-6H-pyrrolo[3,4-b]pyrazin-6-ylcarbonyl)-1,2,3,4-tetrahydronaphthalen-1-yl]-5-(4-fluorophenyl)-2-imino-5-(tetrahydro-2H-pyran-4-yl)imidazolidin-4-one]	80.5
N=C1NC(c2ccc(F)cc2)(c2cccc(Br)c2)C(=O)N1Cc1cccc(C(=O)N2Cc3[nH]nc(C(F)(F)F)c3C2)c1 (stereo not drawn) [Compound 212, 5-(3-bromophenyl)-5-(4-fluorophenyl)-2-imino-3-(3-{[3-(trifluoromethyl)-4,6-dihydropyrrolo [3,4-c]pyrazol-5(1H)-yl]carbonyl}benzyl) imidazolidin-4-one]	9.49
CC(=O)c1cccc(-c2ncc3c(n2)CN(C(=O)c2cc(CN4C(=N)N[C@](CCCC(F)(F)F)(c5ccc(F)cc5)C4=O)ccc2C(F)(F)F)C3)c1 [Compound 59, (5R)-3-[3-{[2-(3-acetylphenyl)-5,7-dihydro-6H-pyrrolo[3,4-d]pyrimidin-6-yl]carbonyl}-4-(trifluoromethyl)benzyl]-5-(4-fluorophenyl)-2-imino-5-(4,4,4-trifluorobutyl)imidazolidin-4-one]	6.45
CC(C)CCC1(c2ccc(F)cc2)NC(=N)N(Cc2ccc(C(F)(F)F)c(C(=O)N3CC[C@@]4(c5ccccc5)NOC[C@H]4C3)c2)C1=O (stereo partly drawn) [Compound 163, 5-(4-fluorophenyl)-2-imino-5-(3-methylbutyl)-3-[3-{[(3aS,7aR)-7a-phenylhexahydro-isoxazolo[4,3-c]pyridin-5(3H)-yl]carbonyl}-4-(trifluoromethyl)benzyl] imidazolidin-4-one]	33.3
CC(C)CCC1(c2ccccc2)NC(=N)N(Cc2ccc(C(F)(F)F)c(C(=O)N3CCC(F)(F)C3)c2)C1=O (stereo not drawn) [Compound 162, 3-{3-[(3,3-difluoropyrrolidin-1-yl)carbonyl]-4-(trifluoromethyl)-benzyl}-2-imino-5-(3-methylbutyl)-5-phenylimidazolidin-4-one]	32.2
N=C1NC(c2ccccc2)(c2ccccc2)C(=O)N1Cc1cc(C(=O)N2Cc3nccnc3C2)cs1 [Compound 407, 3-{[4-(5,7-dihydro-6H-pyrrolo[3,4-b]pyrazin-6-ylcarbonyl)thiophen-2-yl]methyl}-2-imino-5,5-diphenylimidazolidin-4-one]	73.8
N=C1N[C@](CCCC(F)(F)F)(c2ccc(F)cc2)C(=O)N1Cc1ccc(C(F)(F)F)c(C(=O)N2Cc3cnc(N4CCOCC4)nc3C2)c1 [Compound 83, (5R)-5-(4-fluorophenyl)-2-imino-3-{3-[(2-morpholin-4-yl-5,7-dihydro-6H-pyrrolo[3,4-d]pyrimidin-6-yl)carbonyl]-4-(trifluoromethyl)-benzyl}-5-(4,4,4-trifluorobutyl)imidazolidin-4-one]	13.9
N=C1N[C@](CCCC(F)(F)F)(c2ccc(F)cc2)C(=O)N1Cc1ccc(C(F)(F)F)c(C(=O)N2CCn3nc(C4CC4)nc3C2)c1 [Compound 122, (5R)-3-{3-[(2-cyclopropyl-5,6-dihydro[1,2,4]triazolo[1,5-a]pyrazin-7(8H)-yl)carbonyl]-4-(trifluoromethyl)benzyl}-5-(4-fluorophenyl)-2-imino-5-(4,4,4-trifluorobutyl)imidazolidin-4-one]	48.1
CCCC1(c2ccccc2)NC(=N)N(Cc2cccc(C(=O)N3Cc4nccnc4C3)c2)C1=O (stereo not drawn) [Compound 278, 3-[3-(5,7-dihydro-6H-pyrrolo[3,4-b]pyrazin-6-ylcarbonyl)benzyl]-2-imino-5-phenyl-5-propylimidazolidin-4-one]	182
N=C1NC(c2ccccc2)(c2ccccc2)C(=O)N1Cc1cccc(C(=O)N2CCc3nccnc3C2)c1 [Compound 295, 3-[3-(7,8-dihydropyrido[3,4-b]pyrazin-6(5H)-ylcarbonyl)benzyl]-2-imino-5,5-diphenylimidazolidin-4-one]	40.1
CC(C)CC[C@]1(c2ccc(F)cc2)NC(=N)N(C(Cc2ccccc2)c2ccc(C(F)(F)F)c(C(=O)N3Cc4nccnc4C3)c2)C1=O (stereo partly drawn) [Compound 6, (5R)-3-{1-[3-(5,7-dihydro-6H-pyrrolo[3,4-b]pyrazin-6-ylcarbonyl)-4-(trifluoromethyl)-phenyl]-2-phenylethyl}-5-(4-fluorophenyl)-2-imino-5-(3-methylbutyl)imidazolidin-4-one]	0.26
CN(C)C(=O)c1nc2n(c1Cl)CCN(C(=O)c1cccc(CN3C(=N)NC(c4ccccc4)(c4ccccc4)C3=O)c1)C2 [Compound 327, 3-chloro-7-({3-[(2-imino-5-oxo-4,4-diphenylimidazolidin-1-yl)methyl]phenyl}carbonyl)-N,N-dimethyl-5,6,7,8-tetrahydroimidazo[1,2-a]pyrazine-2-carboxamide]	64.2
N=C1N[C@](CCC2CC2)(c2ccc(F)cc2)C(=O)N1C(CCc1ccccc1)c1ccc(C(F)(F)F)c(C(=O)N2Cc3nccnc3C2)c1 (stereo partly drawn) [Compound 3, (5R)-5-(2-cyclopropylethyl)-3-{1-[3-(5,7-dihydro-6H-pyrrolo[3,4-b]pyrazin-6-ylcarbonyl)-4-(trifluoromethyl)phenyl]-3-phenylpropyl}-5-(4-fluorophenyl)-2-iminoimidazolidin-4-one]	0.17
COc1nnc2n1CCN(C(=O)c1cccc(CN3C(=N)NC(c4ccccc4)(c4ccccc4)C3=O)c1)C2 [Compound 340, 2-imino-3-{3-[(3-methoxy-5,6-dihydro[1,2,4]triazolo[4,3-a]pyrazin-7(8H)-yl)carbonyl]benzyl}-5,5-diphenylimidazolidin-4-one]	76.4
CN(C)c1ccc(-c2ncc3c(n2)CN(C(=O)c2cc(CN4C(=N)N[C@](CCCC(F)(F)F)(c5ccc(F)cc5)C4=O)ccc2C(F)(F)F)C3)cn1 [Compound 16, (5R)-3-[3-({2-[6-(dimethylamino)pyridin-3-yl]-5,7-dihydro-6H-pyrrolo[3,4-d]pyrimidin-6-yl}carbonyl)-4-(trifluoromethyl)benzyl]-5-(4-fluorophenyl)-2-imino-5-(4,4,4-trifluorobutyl)imidazolidin-4-one]	1.98
C[C@H](c1cccc(C(=O)N2Cc3cnn(C)c3C2)c1)N1C(=N)NC(c2ccc(F)cc2)(c2ccc(F)cc2)C1=O [Compound 202, 5,5-bis(4-fluorophenyl)-2-imino-3-[(1R)-1-{3-[(1-methyl-4,6-dihydropyrrolo [3,4-c]pyrazol-5(1H)-yl)carbonyl]phenyl}-ethyl]imidazolidin-4-one]	6.54
N=C1NC(c2ccc(F)cc2)(c2ccc(F)cc2)C(=O)N1Cc1ccc(Cl)c(C(=O)N2Cc3ccc(F)cc3C2)c1 [Compound 377, 3-{4-chloro-3-[(5-fluoro-1,3-dihydro-2H-isoindol-2-yl)carbonyl]benzyl}-5,5-bis(4-fluorophenyl)-2-iminoimidazolidin-4-one]	10
COc1cc(-c2ncc3c(n2)CN(C(=O)c2cc(CN4C(=N)N[C@](CCCC(F)(F)F)(c5ccc(F)cc5)C4=O)ccc2C(F)(F)F)C3)ccn1 [Compound 52, (5R)-5-(4-fluorophenyl)-2-imino-3-[3-{[2-(2-methoxypyridin-4-yl)-5,7-dihydro-6H-pyrrolo[3,4-d]pyrimidin-6-yl]carbonyl}-4-(trifluoromethyl)benzyl]-5-(4,4,4-trifluorobutyl)imidazolidin-4-one]	5.58
CC(C)NC(=O)N1CCN(C(=O)c2cc(F)cc(CN3C(=N)NC(c4ccccc4)(c4ccccc4)C3=O)c2)CC1 [Compound 293, 4-({3-fluoro-5-[(2-imino-5-oxo-4,4-diphenylimidazolidin-1-yl)methyl]phenyl}carbonyl)-N-(1-methylethyl) piperazine-1-carboxamide]	39.2
CC(C)CCC1(c2ccccc2)NC(=N)N(Cc2cccc(C(=O)N3Cc4nccnc4C3)c2)C1=O (stereo not drawn) [Compound 249, 3-[3-(5,7-dihydro-6H-pyrrolo[3,4-b]pyrazin-6-ylcarbonyl)benzyl]-2-imino-5-(3-methylbutyl)-5-phenylimidazolidin-4-one]	18.1
CCc1nnc2n1CCN(C(=O)c1cc(CN3C(=N)N[C@](CCCC(F)(F)F)(c4ccc(F)cc4)C3=O)ccc1C(F)(F)F)C2 [Compound 65, (5R)-3-{3-[(3-ethyl-5,6-dihydro[1,2,4]triazolo[4,3-a]pyrazin-7(8H)-yl)carbonyl]-4-(trifluoromethyl)benzyl}-5-(4-fluorophenyl)-2-imino-5-(4,4,4-trifluorobutyl)imidazolidin-4-one]	7.39
N=C1N[C@](CCCC(F)(F)F)(c2ccc(F)cc2)C(=O)N1Cc1ccc(C(F)(F)F)c(C(=O)N2Cc3cnc(NCC4CC4)nc3C2)c1 [Compound 74, (5R)-3-[3-({2-[(cyclopropylmethyl)amino]-5,7-dihydro-6H-pyrrolo[3,4-d]pyrimidin-6-yl}carbonyl)-4-(trifluoromethyl)benzyl]-5-(4-fluorophenyl)-2-imino-5-(4,4,4-trifluorobutyl)imidazolidin-4-one]	9.6
N=C1NC(c2ccccc2)(c2ccccc2)C(=O)N1Cc1ccc(C(F)(F)F)c(C(=O)N2Cc3cncnc3C2)c1 [Compound 145, 3-[3-(5,7-dihydro-6H-pyrrolo[3,4-d]pyrimidin-6-ylcarbonyl)-4-(trifluoromethyl)benzyl]-2-imino-5,5-diphenylimidazolidin-4-one]	4.03
N=C1NC(c2ccccc2)(c2ccccc2)C(=O)N1Cc1cccc(C(=O)N2Cc3cnc(C(F)(F)F)nc3C2)c1 [Compound 242, 2-imino-5,5-diphenyl-3-(3-{[2-(trifluoromethyl)-5,7-dihydro-6H-pyrrolo[3,4-d]pyrimidin-6-yl]carbonyl}benzyl) imidazolidin-4-one]	16.6
